{"source": "patent US10745361B2", "about": "“Piperazine derivatives having multimodal activity against pain” (ESTEVE PHARMACEUTICALS, S.A., priority 2013, dated 2020)", "data": [{"tested_on": "human σ1 receptor and human μ-opioid receptor", "assay": "Human σ1 receptor radioligand assay and human μ-opioid receptor radioligand assay (μ and σ1 dual binding)", "parameters": "key to μ and σ1 dual binding: +: Both Ki-μ and Ki-σ1>=500 nM; ++: One K, <500 nM while the other K, is >=500 nM; +++: Both Ki-μ and Ki-σ1<500 nM; ++++: Both Ki-μ and Ki-σ1<100 nM", "conditions": "one class for both Ki: σ1 ([3H](+)-pentazocine, transfected HEK-293 membranes) and μ-opioid ([3H]-DAMGO, transfected CHO-K1 membranes)", "description": "Human σ1 Receptor Radioligand Assay\nTo investigate binding properties of σ1 receptor ligands to human σ1 receptor, transfected HEK-293 membranes and [^3H](+)-pentazocine (Perkin Elmer, NET-1056), as the radioligand, were used. The assay was carried out with 7 μg of membrane suspension, 5 nM of [^3H](+)-pentazocine in either absence or presence of either buffer or 10 μM Haloperidol for total and non-specific binding, respectively. Binding buffer contained Tris-HCl 50 mM at pH 8. Plates were incubated at 37° C. for 120 minutes. After the incubation period, the reaction mix was then transferred to MultiScreen HTS, FC plates (Millipore), filtered and plates were washed 3 times with ice-cold 10 mM Tris-HCL (pH7.4). Filters were dried and counted at approximately 40% efficiency in a MicroBeta scintillation counter (Perkin-Elmer) using EcoScint liquid scintillation cocktail\nHuman μ-Opioid Receptor Radioligand Assay\nTo investigate binding properties of p-opioid receptor ligands to human p-opioid receptor, transfected CHO-K1 cell membranes and [^3H]-DAMGO (Perkin Elmer, ES-542-C), as the radioligand, were used. The assay was carried out with 20 μg of membrane suspension, 1 nM of [^3H]-DAMGO in either absence or presence of either buffer or 10 μM Naloxone for total and non-specific binding, respectively. Binding buffer contained Tris-HCl 50 mM, MgCl2 5 mM at pH 7.4. Plates were incubated at 27° C. for 60 minutes. After the incubation period, the reaction mix was then transferred to MultiScreen HTS, FC plates (Millipore), filtered and plates were washed 3 times with ice-cold 10 mM Tris-HCL (pH 7.4). Filters were dried and counted at approximately 40% efficiency in a MicroBeta scintillation counter (Perkin-Elmer) using\nEcoScint liquid scintillation cocktail.\nThe following scale as been adopted for representing the binding to the σ1 receptor and the μ-opiod receptor expressed as Ki: • + Both Ki-μ and Ki-σ1>=500 nM • ++ One K, <500 nM while the other K, is >=500 nM • +++ Both Ki-μ and Ki-σ1<500 nM • ++++ Both Ki-μ and Ki-σ1<100 nM", "units": {"Ki": "nM"}, "values": [{"smiles": "CC(C)(C)NS(=O)(=O)c1cccc(N2CCN(Cc3cn(-c4ccccc4)nn3)CC2)c1", "note": "[Example 32, N-tert-butyl-3-(4-((1-phenyl-1H-1,2,3-triazol-4-yl)methyl)piperazin-1-yl)benzenesulfonamide]", "μ and σ1 dual binding": "++"}, {"smiles": "CS(=O)(=O)Nc1cccc(N2CCN(Cc3cnn(-c4ccccc4)c3)CC2)c1", "note": "[Example 33, N-(3-(4-((1-phenyl-1H-pyrazol-4-yl)methyl)piperazin-1-yl)phenyl)methanesulfonamide]", "Ki": "< 100"}, {"smiles": "CS(=O)(=O)Nc1cccc(N2CCN(Cc3cnn(Cc4ccccc4)c3)CC2)c1", "note": "[Example 34, N-(3-(4-((1-benzyl-1H-pyrazol-4-yl)methyl)piperazin-1-yl)phenyl)methanesulfonamide]", "Ki": "< 500"}, {"smiles": "CS(=O)(=O)Nc1cccc(N2CCN(Cc3cnn(Cc4ccccn4)c3)CC2)c1", "note": "[Example 35, N-(3-(4-((1-(pyridin-2-ylmethyl)-1H-pyrazol-4-yl)methyl)piperazin-1-yl)phenyl)methanesulfonamide]", "μ and σ1 dual binding": "++"}, {"smiles": "CC(C)S(=O)(=O)Nc1cccc(N2CCN(Cc3cnn(-c4ccccc4)c3)CC2)c1", "note": "[Example 36, N-(3-(4-((1-phenyl-1H-pyrazol-4-yl)methyl)piperazin-1-yl)phenyl)propane-2-sulfonamide]", "Ki": "< 100"}, {"smiles": "Oc1cccc(N2CCN(Cc3cnn(-c4ccccc4)c3)CC2)c1", "note": "[Example 37, 3-(4-((1-phenyl-1H-pyrazol-4-yl)methyl)piperazin-1-yl)phenol]", "Ki": "< 100"}, {"smiles": "CS(=O)(=O)Nc1cccc(N2CCN(Cc3cnn(-c4ccccn4)c3)CC2)c1", "note": "[Example 38, N-(3-(4-((1-(pyridin-2-yl)-1H-pyrazol-4-yl)methyl)piperazin-1-yl)phenyl)methanesulfonamide]", "Ki": "< 500"}, {"smiles": "CC(C)S(=O)(=O)Nc1cccc(N2CCN(Cc3cnn(-c4ccccn4)c3)CC2)c1", "note": "[Example 39, N-(3-(4-((1-(pyridin-2-yl)-1H-pyrazol-4-yl)methyl)piperazin-1-yl)phenyl)propane-2-sulfonamide]", "Ki": "< 100"}, {"smiles": "CC(C)S(=O)(=O)Nc1cccc(N2CCN(Cc3cn(Cc4ccccc4)cn3)CC2)c1", "note": "[Example 40, N-(3-(4-((1-benzyl-1H-imidazol-4-yl)methyl)piperazin-1-yl)phenyl)propane-2-sulfonamide]", "Ki": "< 500"}, {"smiles": "CS(=O)(=O)Nc1cccc(N2CCN(Cc3cn(-c4ccccc4)nn3)CC2)n1", "note": "[Example 41, N-(6-(4-((1-phenyl-1H-1,2,3-triazol-4-yl)methyl)piperazin-1-yl)pyridin-2-yl)methanesulfonamide]", "μ and σ1 dual binding": "++"}, {"smiles": "CC(C)S(=O)(=O)Nc1cccc(N2CCN(Cc3cn(-c4ccccc4)nn3)CC2)n1", "note": "[Example 42, N-(6-(4-((1-phenyl-1H-1,2,3-triazol-4-yl)methyl)piperazin-1-yl)pyridin-2-yl)propane-2-sulfonamide]", "Ki": "< 500"}, {"smiles": "CC(C)S(=O)(=O)Nc1cccc(N2CCN(Cc3cn(-c4ccccc4F)nn3)CC2)n1", "note": "[Example 43, N-(6-(4-((1-(2-fluorophenyl)-1H-1,2,3-triazol-4-yl)methyl)piperazin-1-yl)pyridin-2-yl)propane-2-sulfonamide]", "μ and σ1 dual binding": "++"}, {"smiles": "O=S(=O)(Nc1cccc(N2CCN(Cc3cn(-c4ccccc4F)nn3)CC2)n1)C1CC1", "note": "[Example 44, N-(6-(4-((1-(2-fluorophenyl)-1H-1,2,3-triazol-4-yl)methyl)piperazin-1-yl)pyridin-2-yl)cyclopropanesulfonamide]", "Ki": "< 500"}, {"smiles": "CCC(=O)Nc1cccc(N2CCN(Cc3cn(-c4ccccc4F)nn3)CC2)n1", "note": "[Example 45, N-(6-(4-((1-(2-fluorophenyl)-1H-1,2,3-triazol-4-yl)methyl)piperazin-1-yl)pyridin-2-yl)propionamide]", "μ and σ1 dual binding": "++"}, {"smiles": "CC(C)S(=O)(=O)Nc1cccc(N2CCN(Cc3cn(-c4ccccc4O)nn3)CC2)n1", "note": "[Example 46, N-(6-(4-((1-(2-hydroxyphenyl)-1H-1,2,3-triazol-4-yl)methyl)piperazin-1-yl)pyridin-2-yl)propane-2-sulfonamide]", "μ and σ1 dual binding": "++"}, {"smiles": "CC(C)S(=O)(=O)Nc1cccc(N2CCN(Cc3cnn(-c4ccccn4)c3)CC2)n1", "note": "[Example 47, N-(6-(4-((1-(pyridin-2-yl)-1H-pyrazol-4-yl)methyl)piperazin-1-yl)pyridin-2-yl)propane-2-sulfonamide]", "Ki": "< 500"}, {"smiles": "CC(C)S(=O)(=O)Nc1cccc(N2CCN(Cc3cn(-c4c(F)cccc4F)nn3)CC2)n1", "note": "[Example 48, N-(6-(4-((1-(2,6-difluorophenyl)-1H-1,2,3-triazol-4-yl)methyl)piperazin-1-yl)pyridin-2-yl)propane-2-sulfonamide]", "μ and σ1 dual binding": "++"}, {"smiles": "CC(C)S(=O)(=O)Nc1cccc(N2CCN(Cc3cn(-c4ccc(F)c(F)c4)nn3)CC2)n1", "note": "[Example 49, N-(6-(4-((1-(3,4-difluorophenyl)-1H-1,2,3-triazol-4-yl)methyl)piperazin-1-yl)pyridin-2-yl)propane-2-sulfonamide]", "μ and σ1 dual binding": "++"}, {"smiles": "CC(C)S(=O)(=O)Nc1cccc(N2CCN(Cc3cn(-c4ccc(Cl)cc4F)nn3)CC2)n1", "note": "[Example 50, N-(6-(4-((1-(4-chloro-2-fluorophenyl)-1H-1,2,3-triazol-4-yl)methyl)piperazin-1-yl)pyridin-2-yl)propane-2-sulfonamide]", "μ and σ1 dual binding": "++"}, {"smiles": "O=S(=O)(Nc1cccc(N2CCN(Cc3cn(-c4ccccc4)nn3)CC2)n1)C1CC1", "note": "[Example 51, N-(6-(4-((1-phenyl-1H-1,2,3-triazol-4-yl)methyl)piperazin-1-yl)pyridin-2-yl)cyclopropanesulfonamide]", "Ki": "< 500"}, {"smiles": "CC(C)S(=O)(=O)Nc1ccc(Cl)c(N2CCN(Cc3cn(-c4ccccc4)nn3)CC2)n1", "note": "[Example 52, N-(5-chloro-6-(4-((1-phenyl-1H-1,2,3-triazol-4-yl)methyl)piperazin-1-yl)pyridin-2-yl)propane-2-sulfonamide]", "Ki": "< 500"}, {"smiles": "CC(C)S(=O)(=O)Nc1cccc(N2CC3CN(Cc4cn(-c5ccccc5)nn4)CC3C2)n1", "note": "(centres unmarked) [Example 53, N-(6-(5-((1-phenyl-1H-1,2,3-triazol-4-yl)methyl)hexahydropyrrolo[3,4-c]pyrrol-2(1H)-yl)pyridin-2-yl)propane-2-sulfonamide]", "Ki": "< 500"}, {"smiles": "CC(C)S(=O)(=O)Nc1cccc(N2CC3CN(Cc4cn(Cc5ccccc5)nn4)CC3C2)n1", "note": "(centres unmarked) [Example 54, N-(6-(5-((1-benzyl-1H-1,2,3-triazol-4-yl)methyl)hexahydropyrrolo[3,4-c]pyrrol-2(1H)-yl)pyridin-2-yl)propane-2-sulfonamide]", "μ and σ1 dual binding": "++"}, {"smiles": "CC(C)S(=O)(=O)Nc1cccc(N2CC3CN(Cc4cn(Cc5ccccn5)nn4)CC3C2)n1", "note": "(centres unmarked) [Example 55, N-(6-(5-((1-(pyridin-2-ylmethyl)-1H-1,2,3-triazol-4-yl)methyl)hexahydropyrrolo[3,4-c]pyrrol-2(1H)-yl)pyridin-2-yl)propane-2-sulfonamide]", "μ and σ1 dual binding": "++"}, {"smiles": "COc1cncc(-n2cc(CN3CCN(c4cccc(NS(=O)(=O)C(C)C)n4)CC3)nn2)c1", "note": "[Example 56, N-(6-(4-((1-(5-methoxypyridin-3-yl)-1H-1,2,3-triazol-4-yl)methyl)piperazin-1-yl)pyridin-2-yl)propane-2-sulfonamide]", "μ and σ1 dual binding": "++"}, {"smiles": "CC(C)S(=O)(=O)Nc1cccc(N2CCCN(Cc3cn(-c4ccccc4)nn3)CC2)n1", "note": "[Example 57, N-(6-(4-((1-phenyl-1H-1,2,3-triazol-4-yl)methyl)-1,4-diazepan-1-yl)pyridin-2-yl)propane-2-sulfonamide]", "Ki": "< 100"}, {"smiles": "CC(C)S(=O)(=O)Nc1cccc(N2CCN(Cc3cn(-c4ccc(Cl)cn4)nn3)CC2)n1", "note": "[Example 58, N-(6-(4-((1-(5-chloropyridin-2-yl)-1H-1,2,3-triazol-4-yl)methyl)piperazin-1-yl)pyridin-2-yl)propane-2-sulfonamide]", "μ and σ1 dual binding": "++"}, {"smiles": "CC(C)S(=O)(=O)Nc1cccc(N2CCCN(Cc3cn(Cc4ccccn4)nn3)CC2)n1", "note": "[Example 59, N-(6-(4-((1-(pyridin-2-ylmethyl)-1H-1,2,3-triazol-4-yl)methyl)-1,4-diazepan-1-yl)pyridin-2-yl)propane-2-sulfonamide]", "μ and σ1 dual binding": "++"}, {"smiles": "CC(C)S(=O)(=O)Nc1cccc(N2CCCN(Cc3cn(-c4ccccc4F)nn3)CC2)n1", "note": "[Example 60, N-(6-(4-((1-(2-fluorophenyl)-1H-1,2,3-triazol-4-yl)methyl)-1,4-diazepan-1-yl)pyridin-2-yl)propane-2-sulfonamide]", "Ki": "< 500"}]}]}
